Experimental data as given in ChEMBL document CHEMBL2034824, “Pyridyl-2,5-diketopiperazines as potent, selective, and orally bioavailable oxytocin antagonists: synthesis, pharmacokinetics, and in vivo potency” (J Med Chem, 2012).
Converted amounts (≈) assume the structure as drawn.

What was measured:
Oxytocin receptor = target: T1, Oxytocin receptor (Homo sapiens, UniProt P30559); test: Displacement of [3H]oxytocin from human oxytocin receptor
T1 sequence (P30559 whole entry): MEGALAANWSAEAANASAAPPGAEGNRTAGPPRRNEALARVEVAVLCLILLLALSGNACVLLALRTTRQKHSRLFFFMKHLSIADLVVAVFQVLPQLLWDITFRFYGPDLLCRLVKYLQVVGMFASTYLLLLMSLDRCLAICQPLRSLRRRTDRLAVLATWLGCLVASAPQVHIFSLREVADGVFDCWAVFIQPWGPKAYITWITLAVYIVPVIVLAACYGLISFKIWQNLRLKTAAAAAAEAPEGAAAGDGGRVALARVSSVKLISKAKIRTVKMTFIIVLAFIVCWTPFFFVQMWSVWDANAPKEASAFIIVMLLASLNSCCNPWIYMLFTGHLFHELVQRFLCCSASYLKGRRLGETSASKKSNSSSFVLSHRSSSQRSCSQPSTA

[1] = AUC in rat at 5 mg/kg, po; assay type: ADME, organism-based; parameters: dose 5 mg/kg, route oral; settings: plasma
[2] = Clearance in rat at 5 mg/kg; assay type: ADME, organism-based; parameters: dose 5 mg/kg; settings: in vivo
[3] = AUC in dog at 0.6 mg/kg, po; assay type: ADME, organism-based, Canis lupus familiaris; parameters: dose 0.6 mg/kg, route oral; settings: plasma
[4] = Clearance in dog at 0.6 mg/kg; assay type: ADME, organism-based, Canis lupus familiaris; parameters: dose 0.6 mg/kg; settings: in vivo
[5] = Lipophilicity, log D of the compound by HPLC analysis; assay type: physicochemical
serum albumin [6] = target: serum albumin (Homo sapiens, UniProt P02768); test: Binding affinity to human serum albumin; assay type: ADME; settings: read-out: PB (converted)
Sequence of serum albumin (Homo sapiens, UniProt P02768) (P02768 whole entry): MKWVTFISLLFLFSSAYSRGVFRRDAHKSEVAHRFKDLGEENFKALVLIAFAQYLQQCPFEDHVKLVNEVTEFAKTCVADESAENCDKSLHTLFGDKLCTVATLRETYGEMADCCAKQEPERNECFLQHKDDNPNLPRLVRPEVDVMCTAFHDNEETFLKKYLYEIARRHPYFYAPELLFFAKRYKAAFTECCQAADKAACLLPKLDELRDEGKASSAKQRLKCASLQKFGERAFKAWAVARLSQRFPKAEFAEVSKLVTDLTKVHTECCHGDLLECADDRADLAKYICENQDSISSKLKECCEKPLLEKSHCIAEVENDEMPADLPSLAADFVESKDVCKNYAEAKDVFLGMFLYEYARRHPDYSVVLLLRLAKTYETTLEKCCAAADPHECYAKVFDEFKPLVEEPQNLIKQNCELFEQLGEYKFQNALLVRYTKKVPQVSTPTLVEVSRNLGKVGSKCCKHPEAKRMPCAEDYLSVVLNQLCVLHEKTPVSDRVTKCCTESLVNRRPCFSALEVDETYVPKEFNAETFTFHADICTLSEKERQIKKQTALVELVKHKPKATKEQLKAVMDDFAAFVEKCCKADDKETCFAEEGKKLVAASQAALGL

serum albumin [7] = target: serum albumin (Rattus norvegicus, UniProt P02770); test: Binding affinity to rat serum albumin; assay type: ADME; settings: read-out: PB (converted)
Sequence of serum albumin (Rattus norvegicus, UniProt P02770) (P02770 whole entry): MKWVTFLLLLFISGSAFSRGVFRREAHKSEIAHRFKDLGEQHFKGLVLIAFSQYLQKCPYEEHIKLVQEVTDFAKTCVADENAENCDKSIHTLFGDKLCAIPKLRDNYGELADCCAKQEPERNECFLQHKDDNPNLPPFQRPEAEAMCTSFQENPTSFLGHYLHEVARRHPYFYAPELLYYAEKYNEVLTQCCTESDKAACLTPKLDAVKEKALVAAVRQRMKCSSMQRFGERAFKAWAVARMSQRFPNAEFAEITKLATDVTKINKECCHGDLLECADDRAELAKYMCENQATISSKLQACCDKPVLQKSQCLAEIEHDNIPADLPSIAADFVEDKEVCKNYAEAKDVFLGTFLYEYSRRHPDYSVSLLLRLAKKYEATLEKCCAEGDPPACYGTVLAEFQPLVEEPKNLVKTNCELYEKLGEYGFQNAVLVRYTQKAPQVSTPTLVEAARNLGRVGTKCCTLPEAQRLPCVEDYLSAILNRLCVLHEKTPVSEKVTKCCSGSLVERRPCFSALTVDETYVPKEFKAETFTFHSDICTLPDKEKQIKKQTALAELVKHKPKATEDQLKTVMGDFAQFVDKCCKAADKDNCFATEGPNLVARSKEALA

Liver microsomes [8] = test: Intrinsic clearance in rat liver microsomes; assay type: ADME, Microsome
Liver = test: Intrinsic clearance in dog liver microsomes; assay type: ADME, Canis lupus familiaris, Microsome
[9] = Intrinsic clearance in cynomolgus monkey liver microsomes; assay type: ADME, Macaca fascicularis, Microsome
Liver microsomes [10] = test: Intrinsic clearance in human liver microsomes; assay type: ADME, Microsome
Vasopressin V1a receptor = Vasopressin V1a receptor (Homo sapiens, UniProt P37288); test: Displacement of [3H]vasopressin from human vasopressin V1a receptor
Sequence of Vasopressin V1a receptor (P37288 whole entry): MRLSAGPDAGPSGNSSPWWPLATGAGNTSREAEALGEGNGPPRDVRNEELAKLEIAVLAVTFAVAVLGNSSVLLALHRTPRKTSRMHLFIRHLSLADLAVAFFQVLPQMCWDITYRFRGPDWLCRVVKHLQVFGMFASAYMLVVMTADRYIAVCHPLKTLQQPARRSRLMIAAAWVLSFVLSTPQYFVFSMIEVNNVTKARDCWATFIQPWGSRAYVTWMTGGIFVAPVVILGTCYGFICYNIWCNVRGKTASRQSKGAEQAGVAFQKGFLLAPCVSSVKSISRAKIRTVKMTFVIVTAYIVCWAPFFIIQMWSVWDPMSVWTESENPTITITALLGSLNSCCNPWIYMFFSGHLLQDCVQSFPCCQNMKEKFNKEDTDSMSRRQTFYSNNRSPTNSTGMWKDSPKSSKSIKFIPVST

Vasopressin V1b receptor = target: T2, Vasopressin V1b receptor (Homo sapiens, UniProt P47901); test: Displacement of [3H]vasopressin from human vasopressin V1b receptor
T2 sequence (P47901 whole entry): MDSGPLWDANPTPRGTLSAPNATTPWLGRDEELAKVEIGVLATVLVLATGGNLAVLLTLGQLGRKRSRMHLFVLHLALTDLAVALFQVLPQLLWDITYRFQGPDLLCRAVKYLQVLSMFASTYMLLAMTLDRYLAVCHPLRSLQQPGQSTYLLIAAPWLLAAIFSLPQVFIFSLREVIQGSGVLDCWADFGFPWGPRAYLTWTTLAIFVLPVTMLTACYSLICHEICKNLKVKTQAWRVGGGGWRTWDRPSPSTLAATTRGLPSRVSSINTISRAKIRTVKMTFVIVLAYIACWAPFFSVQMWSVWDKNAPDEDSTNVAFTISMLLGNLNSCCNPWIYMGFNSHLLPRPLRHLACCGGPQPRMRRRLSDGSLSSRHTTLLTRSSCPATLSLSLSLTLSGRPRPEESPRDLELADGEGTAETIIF

Vasopressin V2 receptor = Vasopressin V2 receptor (Homo sapiens, UniProt P30518); test: Displacement of [3H]vasopressin from human vasopressin V2 receptor
Sequence of Vasopressin V2 receptor (P30518 whole entry): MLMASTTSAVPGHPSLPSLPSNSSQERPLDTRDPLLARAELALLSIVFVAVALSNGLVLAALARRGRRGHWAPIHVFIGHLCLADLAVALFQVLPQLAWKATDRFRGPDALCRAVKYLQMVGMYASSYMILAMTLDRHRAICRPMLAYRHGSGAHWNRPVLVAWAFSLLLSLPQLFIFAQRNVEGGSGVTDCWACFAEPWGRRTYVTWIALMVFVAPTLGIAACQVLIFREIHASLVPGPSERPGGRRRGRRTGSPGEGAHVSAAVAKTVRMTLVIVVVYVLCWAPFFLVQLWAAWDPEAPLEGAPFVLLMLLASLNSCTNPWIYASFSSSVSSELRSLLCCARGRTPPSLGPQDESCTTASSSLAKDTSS

Cytochrome P450 1A2 = target: T3, Cytochrome P450 1A2 (Homo sapiens, UniProt P05177); test: Inhibition of human CYP1A2; assay type: ADME
T3 sequence (P05177 whole entry): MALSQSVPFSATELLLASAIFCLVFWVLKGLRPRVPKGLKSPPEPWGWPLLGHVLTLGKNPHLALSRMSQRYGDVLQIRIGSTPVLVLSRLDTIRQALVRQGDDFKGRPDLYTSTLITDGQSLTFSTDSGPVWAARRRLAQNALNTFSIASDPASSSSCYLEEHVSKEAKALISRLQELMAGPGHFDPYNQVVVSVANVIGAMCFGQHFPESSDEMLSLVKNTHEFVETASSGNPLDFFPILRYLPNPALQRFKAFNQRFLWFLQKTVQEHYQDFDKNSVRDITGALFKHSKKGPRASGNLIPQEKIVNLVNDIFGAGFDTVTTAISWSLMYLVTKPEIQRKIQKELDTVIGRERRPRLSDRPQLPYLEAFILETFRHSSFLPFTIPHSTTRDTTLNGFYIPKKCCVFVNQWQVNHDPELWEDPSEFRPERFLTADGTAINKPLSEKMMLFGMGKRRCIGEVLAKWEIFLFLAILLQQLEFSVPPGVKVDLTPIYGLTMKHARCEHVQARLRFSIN

Cytochrome P450 2C9 = Cytochrome P450 2C9 (Homo sapiens, UniProt P11712); test: Inhibition of human CYP2C9; assay type: ADME
Sequence of Cytochrome P450 2C9 (P11712 whole entry): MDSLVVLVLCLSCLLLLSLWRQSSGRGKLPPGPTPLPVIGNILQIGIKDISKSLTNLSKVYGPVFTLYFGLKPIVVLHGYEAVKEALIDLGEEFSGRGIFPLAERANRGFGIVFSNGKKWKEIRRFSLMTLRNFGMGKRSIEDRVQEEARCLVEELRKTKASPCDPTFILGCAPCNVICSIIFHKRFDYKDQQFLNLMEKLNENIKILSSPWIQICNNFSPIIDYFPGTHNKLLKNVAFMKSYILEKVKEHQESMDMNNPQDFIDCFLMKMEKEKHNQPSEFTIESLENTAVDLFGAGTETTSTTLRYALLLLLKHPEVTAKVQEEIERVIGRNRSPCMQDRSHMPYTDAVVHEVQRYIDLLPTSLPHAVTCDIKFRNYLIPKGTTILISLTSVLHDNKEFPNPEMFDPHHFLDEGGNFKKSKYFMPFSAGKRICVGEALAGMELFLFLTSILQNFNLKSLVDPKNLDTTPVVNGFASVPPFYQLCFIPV

Cytochrome P450 2C19 = Cytochrome P450 2C19 (Homo sapiens, UniProt P33261); test: Inhibition of human CYP2C19; assay type: ADME
Sequence of Cytochrome P450 2C19 (P33261 whole entry): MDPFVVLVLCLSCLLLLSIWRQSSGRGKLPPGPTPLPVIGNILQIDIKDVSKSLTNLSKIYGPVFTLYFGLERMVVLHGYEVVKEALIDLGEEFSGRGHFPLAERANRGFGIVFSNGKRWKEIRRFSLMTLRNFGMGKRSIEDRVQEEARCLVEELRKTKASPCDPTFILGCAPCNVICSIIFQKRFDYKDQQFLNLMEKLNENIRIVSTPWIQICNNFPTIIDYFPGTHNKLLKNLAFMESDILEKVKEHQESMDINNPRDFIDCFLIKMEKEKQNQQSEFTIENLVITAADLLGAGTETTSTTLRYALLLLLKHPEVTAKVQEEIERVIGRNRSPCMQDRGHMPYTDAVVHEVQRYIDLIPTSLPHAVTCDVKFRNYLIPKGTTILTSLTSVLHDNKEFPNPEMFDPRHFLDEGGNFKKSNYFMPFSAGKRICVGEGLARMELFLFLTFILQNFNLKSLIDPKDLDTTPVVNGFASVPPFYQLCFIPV

Cytochrome P450 2D6 = Cytochrome P450 2D6 (Homo sapiens, UniProt P10635); test: Inhibition of human CYP2D6; assay type: ADME
Sequence of Cytochrome P450 2D6 (P10635 whole entry): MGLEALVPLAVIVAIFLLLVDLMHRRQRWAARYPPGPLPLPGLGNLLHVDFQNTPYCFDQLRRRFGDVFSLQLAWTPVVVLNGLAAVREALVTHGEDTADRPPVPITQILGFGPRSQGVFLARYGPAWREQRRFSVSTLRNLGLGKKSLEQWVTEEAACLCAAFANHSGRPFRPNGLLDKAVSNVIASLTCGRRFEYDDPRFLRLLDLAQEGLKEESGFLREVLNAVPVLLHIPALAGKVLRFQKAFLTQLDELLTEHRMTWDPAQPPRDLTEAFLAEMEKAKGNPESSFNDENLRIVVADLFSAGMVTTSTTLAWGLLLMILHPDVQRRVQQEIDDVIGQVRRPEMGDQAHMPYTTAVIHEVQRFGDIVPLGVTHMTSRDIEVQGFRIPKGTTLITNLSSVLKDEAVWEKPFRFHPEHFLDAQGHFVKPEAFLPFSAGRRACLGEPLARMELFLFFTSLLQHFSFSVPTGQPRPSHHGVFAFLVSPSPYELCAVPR

Cytochrome P450 3A4 [11] = target: T4, Cytochrome P450 3A4 (Homo sapiens, UniProt P08684); test: Inhibition of human CYP3A4 using diethoxyfluorescein as substrate; assay type: ADME
T4 sequence (P08684 whole entry): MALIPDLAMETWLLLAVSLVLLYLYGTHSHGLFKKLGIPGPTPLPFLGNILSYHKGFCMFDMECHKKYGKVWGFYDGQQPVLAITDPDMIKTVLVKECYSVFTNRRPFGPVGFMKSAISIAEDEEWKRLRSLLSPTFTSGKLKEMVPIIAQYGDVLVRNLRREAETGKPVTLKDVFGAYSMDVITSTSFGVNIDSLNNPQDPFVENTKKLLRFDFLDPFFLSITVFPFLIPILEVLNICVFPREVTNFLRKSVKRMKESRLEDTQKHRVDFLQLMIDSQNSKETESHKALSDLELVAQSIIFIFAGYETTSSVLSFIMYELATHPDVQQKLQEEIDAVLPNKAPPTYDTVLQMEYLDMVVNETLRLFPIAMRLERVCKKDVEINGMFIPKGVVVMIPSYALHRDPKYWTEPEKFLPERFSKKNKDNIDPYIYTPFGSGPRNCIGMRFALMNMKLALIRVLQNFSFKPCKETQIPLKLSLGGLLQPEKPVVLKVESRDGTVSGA

Cytochrome P450 3A4 [12] = target: T4, Cytochrome P450 3A4; test: Inhibition of human CYP3A4 using 7-benzyloxyquinoline as substrate; assay type: ADME
[13] = AUC in cynomolgus monkey at 2 mg/kg, po; assay type: ADME, organism-based, Macaca fascicularis; parameters: dose 2 mg/kg, route oral; settings: plasma
[14] = Clearance in cynomolgus monkey at 2 mg/kg; assay type: ADME, organism-based, Macaca fascicularis; parameters: dose 2 mg/kg; settings: in vivo
[15] = Oral bioavailability in cynomolgus monkey at 2 mg/kg; assay type: ADME, organism-based, Macaca fascicularis; settings: in vivo
[16] = Oral bioavailability in rat at 5 mg/kg; assay type: ADME, organism-based; settings: in vivo
[17] = Oral bioavailability in dog at 0.6 mg/kg; assay type: ADME, organism-based, Canis lupus familiaris; settings: in vivo
[18] = Aqueous solubility of the compound by HPLC analysis; assay type: physicochemical
Rattus norvegicus [19] = test: Reduction of oxytocin-induced uterine contraction in iv dosed rat uterine contractility model; assay type: functional, organism-based
Salmonella typhimurium = test: Genotoxicity in Salmonella typhimurium by high-throughput fluctuation test/mini-Ames assay; assay type: toxicity, organism-based; settings: salmonella enterica subsp. enterica serovar typhimurium
Rattus norvegicus [20] = test: Toxicity in Sprague-Dawley rat assessed as reduction in body weight at 100 mg/kg/day, po for 7 days; assay type: organism-based; parameters: route oral; settings: in vivo, 168 h
Rattus norvegicus [21] = test: Toxicity in Sprague-Dawley rat assessed as reduction in food intake at 100 mg/kg/day, po for 7 days; assay type: organism-based; parameters: route oral; settings: in vivo, 168 h
Rattus norvegicus [22] = test: Toxicity in Sprague-Dawley rat assessed as adverse clinical signs at 100 mg/kg/day, po for 7 days; assay type: organism-based; parameters: route oral; settings: in vivo, 168 h
Rattus norvegicus [23] = test: Toxicity in Sprague-Dawley rat assessed as adverse histological findings at 100 mg/kg/day, po for 7 days; assay type: organism-based; parameters: route oral; settings: in vivo, 168 h
[24] = Dissociation constant, pKa of the compound in aqueous solution; assay type: physicochemical
[25] = Lipophilicity, log D of the compound at pH 7.4; assay type: physicochemical; settings: buffer
[26] = Solubility of the compound in water; assay type: physicochemical
[27] = Chemical stability of the compound up to 3 months at 50 degC; assay type: physicochemical
[28] = Chemical stability of the compound in aqueous solution at pH 2 to 6 up to 7 days in presence of light; assay type: physicochemical; settings: buffer, pH 2, 168 h
[29] = Half life in rat; assay type: ADME, organism-based; settings: in vivo

| SMILES | Ki (Oxytocin receptor) | AUC [1] | clearance [2] | AUC [3] | clearance [4] | logD [5] | fraction unbound (serum albumin [6]) | CLH (Liver microsomes [8]) | CLH (Liver) | CLH [9] | CLH (Liver microsomes [10]) | Ki (Vasopressin V1a receptor) | Ki (Vasopressin V1b receptor) | Ki (Vasopressin V2 receptor) | IC50 (Cytochrome P450 1A2) | IC50 (Cytochrome P450 2C9) | IC50 (Cytochrome P450 2C19) | IC50 (Cytochrome P450 2D6) | IC50 (Cytochrome P450 3A4 [11]) | IC50 (Cytochrome P450 3A4 [12]) | other results |
| --- | --- | --- | --- | --- | --- | --- | --- | --- | --- | --- | --- | --- | --- | --- | --- | --- | --- | --- | --- | --- | --- |
| CC(C)C[C@@H]1C(=O)N[C@H](C2Cc3ccccc3C2)C(=O)N1[C@@H](C(=O)N(C)C)c1ccc(F)cc1F | 0.0794 nM | 2970 ng·h/mL | 15 mL/min/kg | 770 ng·h/mL | 7 mL/min/kg | 3.4 | 0.06 | 2 mL/min/g | 7 mL/min/g | 22 mL/min/g | 14 mL/min/g | 0.631 µM | > 12.6 µM | 0.0398 µM | > 100 µM | 12 µM | 38 µM | 66 µM | 5 µM | 31 µM | fraction unbound (serum albumin [7]): 0.01; AUC [13]: 16 ng·h/mL; clearance [14]: 24 mL/min/kg; bioavailability [15]: 1.5% |
| CC[C@H](C)[C@@H]1C(=O)N[C@H](C2Cc3ccccc3C2)C(=O)N1[C@@H](C(=O)N1CCOCC1)c1ccc(C)nc1C [EPELSIBAN] | 0.126 nM | 3450 ng·h/mL | 13 mL/min/kg | 69 ng·h/mL | 19 mL/min/kg | 2.2 | 0.3 | < 1 mL/min/g | < 1 mL/min/g | 4 mL/min/g | 5 mL/min/g | > 6.31 µM | > 7.94 µM | 3.98 µM | > 100 µM | > 100 µM | > 100 µM | > 100 µM | > 100 µM | > 100 µM | bioavailability [16]: 55%; bioavailability [17]: 13%; solubility [18]: 0.232 mg/mL (≈ 0.447 mM); IC50 (Rattus norvegicus [19]): 0.192 µM; Activity (Salmonella typhimurium): Non-toxic; Activity (Rattus norvegicus [20]): Non-toxic; Activity (Rattus norvegicus [21]): Non-toxic; Activity (Rattus norvegicus [22]): Non-toxic; Activity (Rattus norvegicus [23]): Non-toxic; pKa [24]: 5.78; logD [25]: 2.55; solubility [26]: 33 mg/mL (≈ 63.6 mM); Stability [27]: Stable; Stability [28]: Stable; AUC [13]: 116 ng·h/mL; clearance [14]: 26 mL/min/kg; bioavailability [15]: 7%; half-life [29]: 1.2 h |
